Patent publication US10058550B2, “Methods of treating heart failure” (priority 2015, dated 2018)

Tests used:
heart failure rat model = assay: Cardiac contractility in vivo in heart failure rat model (MI rat model); settings: for MI Rat Model dP/dtmax (%): in vivo, heart failure (MI) rat model, acute administration for 30 min; for cardiac contractility as measured by dP/dtmax (derivative of left ventricular pressure): male Lewis rats, heart failure by ligation of left descending coronary artery, ejection fraction <35%, dosed acutely for 30 min
Experimental: Male Lewis rats (Charles River, USA) at 2-3 months of age were used for the study. […] APJ agonists were administered dose dependently acutely for a period of 30 min.

human APJ receptor = human APJ receptor (Homo sapiens (Human), UniProt P35414); assay: biochemical; format: biochemical; settings: read-out: Activity hAPJ SPA EC50 IP
Summary of the method: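 Agonist-stimulated [35S]GTPγS (0.2 nM) binding was read by SPA after 90 min at room temperature. Buffer: 20 mM HEPES pH 7.5 with 5 mM MgCl2, 200 mM NaCl, 3 μM GDP, 0.1% BSA; membranes were from a stable human APJ CHO line. EC50 values are averages of independent runs, fitted by non-linear regression.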

[1] = tested on: isolated perfused rat hearts; assay: Load independent inotropic effects, ex vivo assay (isolated perfused rat hearts, Langendorff); settings: percent change over vehicle
Excerpt: Evidence for Load Independent Inotropic Effects with APJ Agonists using Ex Vivo Assay (Isolated Perfused Rat Hearts)
Naive Sprague Dawley® SD rats (Harlan laboratories (Livermore, Calif. USA)) were anesthetized and hearts were excised followed by cannulation in the Langendorff apparatus (Harvard apparatus, Holliston, Mass. USA) via aorta. […] The pressure of the solution causes the aortic valve to shut and the perfusate is then forced into the ostium and the coronary vessels. This allows the heart to beat for several h. A balloon was inserted into the left ventricle (LV) to measure dP/dtmax (derivative of left ventricular pressure) as an index of cardiac contractility. The APJ agonist was perfused constantly in a dose dependent manner into the heart to examine cardiac contractility.

[2] = tested on: isolated perfused rat hearts; assay: Langendorff isolated perfused rat heart (left ventricular dP/dt); settings: ex vivo naive Sprague Dawley rat hearts, Langendorff apparatus, as a function of concentration
APJ/AT1R = APJ/AT1R (Homo sapiens (Human), UniProt P30556+P35414); assay: IP1 assay (TR-FRET) for allosteric interaction between APJ and AT1R in CHO-K1 APJ/AT1R cells; format: cell-based; settings: addition of losartan
Experimental: Single and double stable recombinant cell lines were generated for human APJ and the AT1R receptor in CHO K1 cells tagged either with FLAG or hemagglutinin (HA) tag. Briefly, the CHO-K1 APJ/AT1R cells were seeded in culture medium of DMEM-F12 and 10% FBS at a density of 15 k/well in a 96 well plate overnight. The next day, the culture medium was replaced with medium containing no serum for 4 hours. The compound AngII at a range of concentrations (1 pM-10 μM) with or without different concentrations of APJ agonists were diluted in stimulation buffer and added to the cell plate. The plate was sealed and incubated for 1 hour. This was followed by addition of IP-d2 conjugate followed by europium cryptate antibody conjugate into the wells. The plate was sealed, followed with incubation for 2 hours at room temperature. Time-resolved fluorescence resonance energy (TR-FRET) at 620 nm and 665 nm was measured after 2 hours with an Envision reader. The signal ratios and delta F were calculated and the amount of IP1 produced was inversely proportional to the TR-FRET ratio, 665/620 nm.

heart failure rats = assay: Cardiac function with APJ small molecule agonists in the presence of ACE inhibitor captopril in heart failure rats in vivo; design: species or system rat; settings: captopril alone, acute settings
Excerpt: The interaction between […] (ACE2) and Apelin biology is complicated. To investigate the interaction between the Apelin-APJ and ACE signalling pathways, we examined the improvement in cardiac function with APJ small molecule agonists in the presence of ACE inhibitor captopril in heart failure rats in vivo.

Chain of human APJ receptor (P35414 whole entry): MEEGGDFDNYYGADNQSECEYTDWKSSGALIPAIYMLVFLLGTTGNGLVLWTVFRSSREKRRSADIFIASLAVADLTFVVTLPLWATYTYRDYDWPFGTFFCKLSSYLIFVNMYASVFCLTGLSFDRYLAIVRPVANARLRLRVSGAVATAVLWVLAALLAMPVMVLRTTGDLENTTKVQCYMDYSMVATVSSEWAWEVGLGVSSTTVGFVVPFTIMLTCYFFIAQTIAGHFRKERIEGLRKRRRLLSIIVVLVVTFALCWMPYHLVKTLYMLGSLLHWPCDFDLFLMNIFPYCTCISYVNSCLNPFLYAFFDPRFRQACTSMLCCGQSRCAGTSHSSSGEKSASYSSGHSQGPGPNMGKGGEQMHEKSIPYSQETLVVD
Chain of APJ/AT1R (P35414 whole entry, looked up): as the sequence (P35414 whole entry) above
Chain of APJ/AT1R (P30556 whole entry, looked up): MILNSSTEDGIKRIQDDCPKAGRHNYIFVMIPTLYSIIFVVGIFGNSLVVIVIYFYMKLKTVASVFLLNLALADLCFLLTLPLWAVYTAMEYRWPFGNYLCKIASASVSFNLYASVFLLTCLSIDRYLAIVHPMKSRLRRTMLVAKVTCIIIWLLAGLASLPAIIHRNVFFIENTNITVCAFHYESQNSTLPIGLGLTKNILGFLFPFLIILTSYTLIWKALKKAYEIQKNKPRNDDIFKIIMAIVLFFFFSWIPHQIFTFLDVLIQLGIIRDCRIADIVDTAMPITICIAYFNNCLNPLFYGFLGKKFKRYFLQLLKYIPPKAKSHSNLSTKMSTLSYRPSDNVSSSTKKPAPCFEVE

Row | Structure (SMILES) | MI Rat Model dP/dtmax (%) (heart failure rat model) | EC50 (human APJ receptor) [pM] | Isolated Heart Assay dP/dtmax (%) [1] [%] | Isolated Heart Assay dP/dtmin (%) [1] [%] | left ventricular dP/dtmax (load independent cardiac contractility) [2] | left ventricular dP/dtmin (load independent cardiac relaxation) [2] | cardiac contractility as measured by dP/dtmax (derivative of left ventricular pressure) (heart failure rat model) | positive cooperativity induced by APJ small molecule agonists in the presence of AngII (APJ/AT1R) | contractility (heart failure rats) | ejection fraction (heart failure rats)
1 | COc1cccc(OC)c1-n1c(NS(=O)(=O)[C@H](C)[C@@H](OC)c2ncc(Cl)cn2)nnc1-c1cncc(C)c1 (single isomer, unassigned) [Example 557.0] | No effect | 310 | 17.0 | 20.0 |  |  |  |  |  | 
2 | COc1cccc(OC)c1-n1c(NS(=O)(=O)[C@@H](C)[C@H](C)c2ncc(C)cn2)nnc1-c1cccnc1 [Example 586.0, (2S,3R)—N-(4-(2,6-dimethoxyphenyl)-5-(3-pyridinyl)-4H-1,2,4-triazol-3-yl)-3-(5-methyl-2-pyrimidinyl)-2-butanesulfonamide] |  | 300 |  |  | increases load independent cardiac contractility | increases load independent cardiac relaxation | increase in cardiac contractility |  |  | 
3 | CCCCc1nc(Cl)c(CO)n1Cc1ccc(-c2ccccc2-c2nn[nH]n2)cc1 [losartan] |  |  |  |  |  |  |  | relieved this cooperativity |  | 
4 | CCO[C@H](c1ncc(C)cn1)[C@H](C)S(=O)(=O)Nc1nnc(-c2cccnc2)n1-c1c(OC)cccc1OC [Example 109.0, (1R,2S)-N-(4-(2,6-dimethoxyphenyl)-5-(pyridin-3-yl)-4H-1,2,4-triazol-3-yl)-1-ethoxy-1-(5-methylpyrimidin-2-yl)propane-2-sulfonamide] | 20% | 850 | 15 | 25 | increases load independent cardiac contractility | increases load independent cardiac relaxation | increase in cardiac contractility |  |  | 
5 | COc1cccc(OC)c1-n1c(NS(=O)(=O)[C@@H](C)[C@H](O)c2ncc(C)cn2)nnc1-c1cccc(C)n1 [Example 99.0, (1R,2S)-N-(4-(2,6-dimethoxyphenyl)-5-(6-methylpyridin-2-yl)-4H-1,2,4-triazol-3-yl)-1-hydroxy-1-(5-methylpyrimidin-2-yl)propane-2-sulfonamide] |  | 2300 |  |  | increases load independent cardiac contractility | increases load independent cardiac relaxation | increase in cardiac contractility |  |  | 
6 | C[C@H](CS)C(=O)N1CCC[C@H]1C(=O)O [Captopril, captopril] |  |  |  |  |  |  |  |  | does not show a marked improvement | does not show a marked improvement
7 | COc1cccc(OC)c1-n1c(NS(=O)(=O)[C@@H](C)[C@H](C)c2ncc(C)cn2)nnc1-c1cncc(C)c1 [Example 263.0, (2S,3R)—N-(4-(2,6-dimethoxyphenyl)-5-(5-methylpyridin-3-yl)-4H-1,2,4-triazol-3-yl)-3-(5-methylpyrimidin-2-yl)butane-2-sulfonamide] |  |  |  |  | increases load independent cardiac contractility | increases load independent cardiac relaxation | increase in cardiac contractility |  |  | 
